Experiments:
[1] = target: T1, Recombinant human PRMT5: MEP50 protein (Homo sapiens, UniProt O14744); assay: Inhibitory activity against human PRMT5 enzymatic activity (HTRF quantification of SAH, +MTA); assay type: biochemical; conditions: +1 µM MTA; histone H4 peptide substrate (1-21), SAM; 37°C 120 min
T1 construct: purchased active motif 31521
Method: • 1. Recombinant human PRMT5: MEP50 protein (active motif, 31521) • 2. EPIgeneous Methyltransferase kit (cisbio, 62SAHPEH) • 3. 96-well plate (Sangon Biotech, F610960-0010) • 4. 384-well white plate (Perkin Elmer, 6007290) • 5. 1 M Tris-HCl [pH 8.5] (Sangon Biotech, B548141) • 6. Histone H4 peptide substrates (1-21) (BPS bioscience, 52014) • 7. 5'-deoxy-5'-(methylthio)adenosine (Aladdin, D168979-25 mg) • 8. Tween-20 (Sangon Biotech, A100777-0500) • 9. DMSO (Sigma, D2650) • 10. Incubator (Shanghai Boxun Medical Biological Instrument Corp.) • 11. PHERAstar FS microplate reader (BMG Labtech)
PRMT5 can induce the transfer of a methyl group from S-adenosylmethionine (SAM) to a histone H4 peptide substrate (1-21), generating S-adenosylhomocysteine (SAH). In this experiment, the amount of SAH produced in the reaction is quantified using a Homogeneous Time-Resolved Fluorescence (HTRF) method to evaluate the inhibitory activity of compounds against PRMT5 enzymatic activity.
The sample diluent containing (or not containing) 1 µM 5 '-deoxy-5' - (methylthiyl) adenosine (MTA) was prepared using the EPIgeneous Diluent Buffer from the EPIgeneous Methyltransferase kit. With reference to the instructions, SAM and SAH standards were serially diluted and dispensed at 10 µL per well (in duplicate for each concentration). 2 µL of EPIgeneous Detection Buffer 1 was added to each well, and the plate was centrifuged, shaken to mix thoroughly, and placed at room temperature for 10 min. The SAH d2 Reagent was diluted 32-fold with EPIgeneous Detection Buffer 2, and 4 µL of the diluted SAH-d2 solution was added to each well. The plate was centrifuged and shaken for 2 min to mix thoroughly. The SAH Tb Cryptate Antibody was diluted 50-fold in EPIgeneous Detection Buffer 2. 4 µL of the diluted Tb Cryptate Antibody solution was added to each well, and the plate was centrifuged, shaken for 2 min to mix thoroughly, and left to stand at room temperature for 60 min, followed by reading on a PHERAstar FS microplate reader to obtain the 665/620 ratio. Plotting SAH concentration against the ratio to generate an x-y curve yields a corresponding calculation formula.
Reaction buffer (1×): 50 mM Tris-HCl [pH 8.5], 1 mM DTT, 0.005% Tween-20.
Compound preparation: a 20 mM solution of test compound in 100% DMSO was diluted in 100% DMSO to 1 mM as the highest concentration, and the solution at this concentration was then subjected to a 10-point, 3-fold serial dilution in 100% DMSO in a 96-well plate. Wells containing 100% DMSO served as the blank control. The above-described serially diluted compounds and the 100% DMSO were diluted 20-fold with the reaction buffer to prepare 5× compound solutions, which were mixed thoroughly for use.
The PRMT5:MEP50 was diluted in the reaction buffer to a final concentration of 12.5 nM. Then, 4 µL of the 12.5 nM PRMT5:MEP50 solution was added to each well of a 384-well plate. Wells containing 4 µL of the reaction buffer served as the negative control wells. 2 µL of the 5× compound solution was added to each well. For the negative control wells (no enzyme, no compound) and the positive control wells (no compound), 2 µL of 5% DMSO was added. The plate was sealed with a membrane, centrifuged, shaken for 2 min to mix thoroughly, and placed at room temperature for 20 min.
Preparation of substrate mixture solution: The substrate mixture solution containing 1.5 µM histone H4 peptide substrate (1-21) and 2.5 µM SAM, or 1.5 µM histone H4 peptide substrate (1-21), 2.5 µM SAM and 2.5 µM MTA was prepared in the reaction buffer.
The reaction was initiated by adding 4 µL of the substrate mixture solution (-/+ MTA) to each well. The plate was sealed with a membrane, centrifuged, shaken for 2 min to mix thoroughly, and incubated at 37°C for 120 min in a constant temperature incubator.
Detection: The detection was performed by using the EPIgeneous Methyltransferase kit. […]

Lu99 xenografts = assay: Efficacy test in subcutaneous Lu99 xenograft model; assay type: in vivo, NUNU nude mice; conditions: i.g., qd/21d
Source text: To evaluate the inhibitory effect of the compounds of the present disclosure on tumour growth in a subcutaneous xenograft model using the human lung giant cell carcinoma cell line Lu99 in female NUNU nude mice
Using a solution of 20% PEG400 + 70% (10% TPGS) + 5%DMSO+5% (1% HPMCK100LV) solution
Laboratory animals: Female NUNU nude mice, purchased from Zhejiang Vital River Laboratory Animal Technology Co., Ltd. (License No.: SCXK(Zhe)2024-0001; animal qualification certificate No.: 20240524Abzz0619000789), weighing approximately 20-24 g at arrival.
Housing conditions: The mice were housed 5 per cage under a 12/12 h light/dark cycle, constant temperature of 23°C ± 1°C, humidity of 50%-60%, with free access to food and water.
After acclimatisation, NUNU nude mice were grouped and administered as follows: Table 4. Animal grouping and dosing regimen for in vivo efficacy experiment
(§1) 0.1 ml (5 × 10^5 cells ± 50% matrigel) of Lu99 cells (cell-to-matrigel volume ratio = 1 : 1) in the logarithmic growth phase was subcutaneously injected into the right upper limb of each mouse. When the mean tumour volume reached 75 mm^3, mice were randomly assigned to 4 groups (12 mice per group) based on tumour volume and body weight, as shown in Table 4. The day of grouping was designated as D0, and oral gavage administration was initiated once or twice daily for a total of 21 days. The 21st day after administration was designated as D21 (Table 5). Tumour volume and body weight of tumour-bearing mice were measured twice weekly using a calliper and a balance, respectively, and the data were recorded.
All data were plotted and statistically analysed using Excel and GraphPad Prism 10 software.
Tumour volume (V) was calculated using the formula: V = 1/2 × a × b^2, where a represents the length and b represents the width.
Relative tumour proliferation rate: T/C (%) = (T-T0)/(C-C0) × 100(%), where T and C are the tumour volumes of the treated and control groups at the end of the experiment, and T0 and C0 are the corresponding tumour volumes at the start of the experiment.
Tumour growth inhibition: TGI (%) = 100-T/C (%).

[2] = Body weight and survival of tumour-bearing mice in the Lu99 efficacy test; assay type: in vivo, NUNU nude mice; conditions: for Surviving animals/group: i.g., qd/21d
Method: as §1

T1 sequence (O14744 whole entry): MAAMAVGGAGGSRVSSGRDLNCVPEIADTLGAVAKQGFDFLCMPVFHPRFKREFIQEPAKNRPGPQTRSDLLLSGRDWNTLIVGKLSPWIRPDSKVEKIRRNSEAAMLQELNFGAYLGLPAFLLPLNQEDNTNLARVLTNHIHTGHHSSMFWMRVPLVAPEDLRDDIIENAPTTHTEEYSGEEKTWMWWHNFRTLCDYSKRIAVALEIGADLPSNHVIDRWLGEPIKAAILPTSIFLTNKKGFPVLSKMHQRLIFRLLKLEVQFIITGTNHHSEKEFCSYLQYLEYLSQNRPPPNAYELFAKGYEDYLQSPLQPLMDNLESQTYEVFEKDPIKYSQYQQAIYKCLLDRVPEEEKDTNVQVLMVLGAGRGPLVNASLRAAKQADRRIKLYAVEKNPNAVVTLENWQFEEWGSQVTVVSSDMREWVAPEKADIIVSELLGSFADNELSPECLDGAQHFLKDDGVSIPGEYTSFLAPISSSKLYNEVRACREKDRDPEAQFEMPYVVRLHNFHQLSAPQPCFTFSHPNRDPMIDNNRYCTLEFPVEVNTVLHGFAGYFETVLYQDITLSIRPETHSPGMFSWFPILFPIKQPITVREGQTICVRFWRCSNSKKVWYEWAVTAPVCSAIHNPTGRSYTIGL
T1 sequence (Q9BQA1 whole entry partner): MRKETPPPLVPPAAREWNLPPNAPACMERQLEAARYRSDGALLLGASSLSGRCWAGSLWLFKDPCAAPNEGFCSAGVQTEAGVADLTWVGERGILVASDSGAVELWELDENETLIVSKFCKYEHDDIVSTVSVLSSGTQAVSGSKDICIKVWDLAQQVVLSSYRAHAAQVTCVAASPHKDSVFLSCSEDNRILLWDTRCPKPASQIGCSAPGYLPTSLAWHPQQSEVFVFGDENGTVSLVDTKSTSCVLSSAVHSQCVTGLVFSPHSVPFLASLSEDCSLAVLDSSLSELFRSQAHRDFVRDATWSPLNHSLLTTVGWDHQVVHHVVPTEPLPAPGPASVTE

Compound: [2H]C([2H])([2H])n1ncc(-c2ccc3c(=O)[nH]nc(CN)c3c2)c1-c1c(F)cc2c(c1C#N)N1CCC[C@H]1CO2 (single isomer, unassigned) [Compound 8-p1]
- IC50 [1]: 5.19 nM

Compound: Cn1ncc(-c2ccc3c(=O)[nH]nc(CN)c3c2)c1-c1c(F)cc2c(c1C#N)O[C@H]1CC[C@H]1O2 (atropisomer, axis not shown; (M)) [Compound 1-p1, (M)-(2aS,8aR)-5-(4-(4-(aminomethyl)-1-oxo-1,2-dihydrophthalazin-6-yl)-1-methyl-1H-pyrazol-5-yl)-6-fluoro-1,2,2a,8a-tetrahydrobenzo[b]cyclobuta[e][1,4]dioxine-4-carbonitrile]
- IC50 [1]: 4.91 nM

Compound: [2H]C([2H])([2H])n1ncc(-c2ccc3c(=O)[nH]nc(CN)c3c2)c1-c1c(F)cc2c(c1C#N)O[C@H]1CC[C@H]1O2 (single isomer, unassigned) [Compound 2-p1]
- IC50 [1]: 5.23 nM
- Mean tumour volume (mm^3) D21 (Lu99 xenografts; 50 mpk): 574 mm^3
- TGI (%) D21 (Lu99 xenografts; 50 mpk): 72%
- Mean tumour volume (mm^3) D21 (Lu99 xenografts; 100 mpk): 256 mm^3
- TGI (%) D21 (Lu99 xenografts; 100 mpk): 90%
- Mean tumour volume (mm^3) D21 (Lu99 xenografts; 200 mpk): 165 mm^3
- TGI (%) D21 (Lu99 xenografts; 200 mpk): 95%
- effect on body weight of the mice ([2]; 50, 100 and 200 mpk/qd, once daily for 21 days): no effects on body weight
- Surviving animals/group ([2]; 50 mpk): 12/12
- Surviving animals/group ([2]; 100 mpk): 12/12
- Surviving animals/group ([2]; 200 mpk): 12/12
